# Measurements from patent US8871681B2, “Herbicidal compositions comprising 4-amino-3-chloro-5-fluoro-6-(4-chloro-2-fluoro-3-methoxyphenyl) pyridine-2-carboxylic acid or a derivative thereof and certain sulfonylureas” (Dow AgroSciences LLC, priority 2012, dated 2014).
# Tests used:
# [1] = test system: CYPES (Cyperus esculentus, yellow nutsedge); experiment: Postemergence foliar-applied weed control, direct seeded rice, greenhouse (Example I); assay type: in vivo, Cyperus esculentus L.; conditions: 20 DAA
# Description: (§1) Seeds or nutlets of the desired test plant species were planted in a soil matrix prepared by mixing a loam or sandy loam soil (e.g., 28.6 percent silt, 18.8 percent clay, and 52.6 percent sand, with a pH of about 5.8 and an organic matter content of about 1.8 percent) and calcareous grit in an 80 to 20 ratio. The soil matrix was contained in plastic pots with a volume of 1 quart and a surface area of 83.6 square centimeters (cm^2). When required to ensure good germination and healthy plants, a fungicide treatment and/or other chemical or physical treatment was applied. The plants were grown for 8-22 days in a greenhouse with an approximate 14 h photoperiod which was maintained at about 29° C. during the day and 26° C. during the night. Nutrients (Peters Excel® 15-5-15 5-Ca 2-Mg and iron chelate) were applied in the irrigation solution as needed and water was added on a regular basis. Supplemental lighting was provided with overhead metal halide 1000-Watt lamps as necessary. The plants were employed for testing when they reached the first through fourth true leaf stage.
# (§2) Treatments consisted of the acid or esters of 4-amino-3-chloro-5-fluoro-6-(4-chloro-2-fluoro-3-methoxy-phenyl)pyridine-2-carboxylic acid (Compound A), each formulated as an SC, and various herbicidal components alone and in combination. Forms of compound A were applied on an acid equivalent basis.
# (§3) Other herbicidal components were applied on an active ingredient basis and included acetolactate synthase (ALS)-inhibiting herbicides (sulfonylurea chemical class) azimsulfuron formulated as Gulliver®, bensulfuron-methyl formulated as Londax® 60DF, cyclosulfamuron (technical material), ethoxysulfuron formulated as Sunrice® 15 WDG, flazasulfuron formulated as Katana®, flucetosulfuron formulated as Sukedachi® 1KG G, foramsulfuron formulated as Option®, imazosulfuron formulated as Brazzos® WG, iodosulfuron-methyl-sodium formulated as Hussar®, metsulfuron-methyl formulated as Lorate®, nicosulfuron formulated as Accent®, orthosulfamuron formulated as Strada® WG, primisulfuron-methyl (technical material), propyrisulfuron formulated as Zeta One®, rimsulfuron formulated as Matrix® WG, sulfometuron-methyl formulated as Oust®, and trifloxysulfuron-sodium formulated as Monument® 75WG.
# (§4) Treatment requirements were calculated based upon the rates being tested, the concentration of active ingredient or acid equivalent in the formulation, and a 12 mL application volume at a rate of 187 L/ha.
# (§5) For treatments comprised of formulated compounds, measured amounts of compounds were placed individually in 25 mL glass vials and diluted in a volume of 1.25% (v/v) Agri-Dex® crop oil concentrated to obtain 12× stock solutions. […] Application solutions were prepared by adding an appropriate amount of each stock solution (e.g., 1 mL) and diluted to the appropriate final concentrations with the addition of 10 mL of an aqueous mixture of 1.25% (v/v) crop oil concentrate so that the final spray solutions contained 1.25+/−0.05% (v/v) Agrcrop oil concentrate.
# (§6) For treatments comprised of formulated and technical compounds, weighed amounts of the technical materials were placed individually in 25 mL glass vials and dissolved in a volume of 97:3 v/v acetone/DMSO to obtain 12× stock solutions, and measured amounts of the formulated compounds were placed individually in 25 mL glass vials and diluted in a volume of 1.25% (v/v) crop oil concentrate to obtain 12× stock solutions. […] Application solutions were prepared by adding an appropriate amount of each stock solution (e.g., 1 mL) and diluted to the appropriate final concentrations with the addition of an appropriate amount of an aqueous mixture of 1.5% (v/v) crop oil concentrate so that the final spray solutions contained 1.25% (v/v) crop oil concentrate. […]
# [2] = test system: DIGSA (Digitaria sanguinalis, large crabgrass); experiment: as above; assay type: in vivo, Digitaria sanguinalis (L.) Scop.; conditions: 20 DAA
# Description: as §1, §2, §3, §4, §5, §6
# [3] = test system: LEFCH (Leptochloa chinensis, Chinese sprangletop); experiment: as above; assay type: in vivo, Leptochloa chinensis (L.) Nees; conditions: Dinebra chinensis, post-emergence, 480 h, 20 DAA, read-out: Visual Weed Control (%) Obs
# Description: as §1, §2, §3, §4, §5, §6
# [4] = test system: ECHOR (Echinochloa oryzoides, early watergrass); experiment: In-water applied weed control, transplanted paddy rice, greenhouse (Example II); assay type: in vivo, Echinochloa oryzoides (Ard.) Fritsch
# Description: (§7) Weed seeds or nutlets of the desired test plant species were planted in puddled soil (mud) prepared by mixing a shredded, non-sterilized mineral soil (50.5 percent silt, 25.5 percent clay, and 24 percent sand, with a pH of about 7.6 and an organic matter content of about 2.9 percent) and water at a 1:1 volumetric ratio. The prepared mud was dispensed in 365 mL aliquots into 16-ounce (oz.) non-perforated plastic pots with a surface area of 86.59 square centimeters (cm^2) leaving a headspace of 3 centimeters (cm) in each pot. Rice seeds were planted in Sun Gro MetroMix® 306 planting mixture, which typically has a pH of 6.0 to 6.8 and an organic matter content of about 30 percent, in plastic plug trays. Seedlings at the second or third leaf stage of growth were transplanted into 860 mL of mud contained in 32-oz. non-perforated plastic pots with a surface area of 86.59 cm^2 4 days prior to herbicide application. The paddy was created by filling the headspace of the pots with 2.5 to 3 cm of water. When required to ensure good germination and healthy plants, a fungicide treatment and/or other chemical or physical treatment was applied. The plants were grown for 4-22 days in a greenhouse with an approximate 14 h photoperiod which was maintained at about 29′C during the day and 26° C. during the night. Nutrients were added as Osmocote® (19:6:12, N:P:K+minor nutrients) at 2 g per 16-oz. pot and 4 g per 32-oz. pot. Water was added on a regular basis to maintain the paddy flood, and supplemental lighting was provided with overhead metal halide 1000-Watt lamps as necessary. The plants were employed for testing when they reached the first through fourth true leaf stage.
# (§8) Treatments consisted of the acid or esters of 4-amino-3-chloro-5-fluoro-6-(4-chloro-2-fluoro-3-methoxy-phenyl)pyridine-2-carboxylic acid (compound A) each formulated as an SC and various herbicidal components alone and in combination. Forms of compound A were applied on an acid equivalent basis.
# (§9) Other herbicidal components were applied on an active ingredient basis and included acetolactate synthase (ALS)-inhibiting herbicides (sulfonylurea chemical class), azimsulfuron formulated as Gulliver®, bensulfuron-methyl formulated as Londax® 60DF, cyclosulfamuron (technical grade materail), ethoxysulfuron formulated as Sunrice® 15 WDG, flucetosulfuron formulated as Sukedachi® 1KG G, imazosulfuron formulated as Brazzos®, metsulfuron-methyl formulated as Lorate®, nicosulfuron formulated as Accent®, orthosulfamuron formulated as Strada® WG, propyrisulfuron formulated as Zeta One®, and rimsulfuron formulated as Matrix® WG.
# (§10) Treatment requirements for each compound or herbicidal component were calculated based upon the rates being tested, the concentration of active ingredient or acid equivalent in the formulation, an application volume of 2 mL per component per pot, and an application area of 86.59 cm^2 per pot.
# (§11) For formulated compounds, a measured amount was placed in an individual 100 or 200 mL glass vial and was dissolved in a volume of 1.25% (v/v) Agri-Dex® crop oil concentrate to obtain application solutions.
# (§12) For technical grade compounds, a weighed amount was placed in an individual 100 to 200 mL glass vial and was dissolved in a volume of acetone to obtain concentrated stock solutions. […] The concentrated stock solutions obtained were diluted with an equivalent volume of an aqueous mixture containing 2.5% (v/v) crop oil concentrate so that the final application solutions contained 1.25% (v/v) crop oil concentrate.
# (§13) Applications were made by injecting with a pipetter appropriate amounts of the application solutions, individually and sequentially, into the aqueous layer of the paddy. Control plants were treated in the same manner with the solvent blank. Applications were made so that all treated plant material received the same concentrations of acetone and crop oil concentrate. […]
# [5] = test system: CYPIR (Cyperus iria, rice flatsedge); experiment: Postemergence foliar-applied weed control, direct seeded rice, greenhouse (Example I); assay type: in vivo, Cyperus iria L.; conditions: 20 DAA
# Description: as §1, §2, §3, §4, §5, §6
# [6] = test system: CYPRO (Cyperus rotundus, purple nutsedge); experiment: In-water applied weed control, transplanted paddy rice, greenhouse (Example II); assay type: in vivo, Cyperus rotundus L.
# Description: as §7, §8, §9, §10, §11, §12, §13
# [7] = test system: LEFCH (Leptochloa chinensis, Chinese sprangletop); experiment: as above; assay type: in vivo, Leptochloa chinensis (L.) Nees; conditions: Table 43, 17.5 gai/ha alone
# Description: as §7, §8, §9, §10, §11, §12, §13
# [8] = test system: BRAPP (Brachiaria platyphylla, broadleaf signalgrass); experiment: Postemergence foliar-applied weed control, direct seeded rice, greenhouse (Example I); assay type: in vivo, Brachiaria platyphylla (Griseb.) Nash; conditions: Urochloa platyphylla, post-emergence, 480 h, 20 DAA, read-out: Visual Weed Control (%) Obs
# Description: as §1, §2, §3, §4, §5, §6
# [9] = test system: SCPMA (Bolboschoenus maritimus or Schoenoplectus maritimus, sea clubrush); experiment: In-water applied weed control, transplanted paddy rice, greenhouse (Example II); assay type: in vivo, Bolboschoenus maritimus (L.) Palla
# Description: as §7, §8, §9, §10, §11, §12, §13
# [10] = test system: CIRAR (Cirsium arvense, Canada thistle); experiment: Post-emergence foliar-applied weed control in cereal crops, greenhouse (Example III); assay type: in vivo, Cirsium arvense (L.) Scop.; conditions: Cirsium arvense, post-emergence; Table 58 (cereal); foliar-applied; after 20-22 days; 3.75 gai/ha alone; read-out: Weed Control CIRAR Obs
# Description: Seeds of the desired test plant species were planted in Sun Gro MetroMix® 306 planting mixture, which typically has a pH of 6.0 to 6.8 and an organic matter content of about 30 percent, in plastic pots with a surface area of 103.2 square centimeters (cm^2). When required to ensure good germination and healthy plants, a fungicide treatment and/or other chemical or physical treatment was applied. The plants were grown for 7-36 days in a greenhouse with an approximate 14 hour photoperiod which was maintained at about 18° C. during the day and 17° C. during the night. Nutrients and water were added on a regular basis and supplemental lighting was provided with overhead metal halide 1000-Watt lamps as necessary. The plants were employed for testing when they reached the second or third true leaf stage.
# Treatments consisted of the benzyl ester of 4-amino-3-chloro-5-fluoro-6-(4-chloro-2-fluoro-3-methoxy-phenyl)pyridine-2-carboxylic acid (Compound A), formulated as an SC (suspension concentrate), and a second cereal herbicide alone and in combination.
# Measured aliquot of benzyl ester of 4-amino-3-chloro-5-fluoro-6-(4-chloro-2-fluoro-3-methoxy-phenyl)pyridine-2-carboxylic acid (Compound A) was placed in 25 milliliter (mL) glass vials and diluted in a volume of 1.25% (v/v) Agri-dex crop oil concentrated to obtain stock solutions. Compound requirements are based upon a 12 mL application volume at a rate of 187 liters per hectare (L/ha). Spray solutions of the second cereal herbicide and experimental compound mixtures were prepared by adding the stock solutions to the appropriate amount of dilution solution to form 12 mL spray solution with active ingredients in two- and three-way combinations. Formulated compounds were applied to the plant material with an overhead Mandel track sprayer equipped with an 8002E nozzle calibrated to deliver 187 L/ha over an application area of 0.503 square meters (m^2) at a spray height of 18 inches (46 cm) above average plant canopy. Control plants were sprayed in the same manner with the solvent blank.
# The treated plants and control plants were placed in a greenhouse as described above and watered by sub-irrigation to prevent wash-off of the test compounds. After 20-22 days, the condition of the test plants as compared with that of the control plants was determined visually and scored on a scale of 0 to 100 percent where 0 corresponds to no injury and 100 corresponds to complete kill.
# Colby's equation was used to determine the herbicidal effects expected from the mixtures (Colby, S. R. 1967. Calculation of the synergistic and antagonistic response of herbicide combinations. Weeds 15:20-22.).
# The following equation was used to calculate the expected activity of mixtures containing two active ingredients, A and B: Expected=A+B−(A×B/100)
structure (smiles),measurement,setting,value
"COc1cc(OC)nc(NC(=O)NS(=O)(=O)c2ncccc2C(=O)N(C)C)n1 [Nicosulfuron, 2-[[[[(4,6-dimethoxy-2-pyrimidinyl)amino]carbonyl]amino]sulfonyl]-N,N-dimethyl-3-pyridinecarboxamide, reference compound]",Visual Weed Control (%) Obs,[1]; 8.75 gai/ha,10%
same,Visual Weed Control (%) Obs,[1]; 17.5 gai/ha,60%
same,Visual Weed Control (%) Obs,[1]; 35 gai/ha,70%
same,Visual Weed Control (%) Obs,[2]; 8.75 gai/ha,30%
same,Visual Weed Control (%) Obs,[2]; 17.5 gai/ha,55%
same,pest or weed control at 35 g/ha,[3]; 35 gai/ha,75%
same,Visual Weed Control (%) - 20 DAA ECHOR Obs,"[4]; Table 43, 17.5 gai/ha alone",0%
same,Visual Weed Control (%) - 20 DAA ECHOR Obs,"[4]; Table 44, 17.5 gai/ha alone",0%
same,Visual Weed Control (%) - 20 DAA ECHOR Obs,"[4]; Table 44, 35 gai/ha alone",50%
same,Visual Weed Control (%) Obs,[5]; 8.75 gai/ha,80%
same,Visual Weed Control (%) - 20 DAA CYPRO Obs,"[6]; Table 43, 17.5 gai/ha alone",30%
same,Visual Weed Control (%) - 20 DAA CYPRO Obs,"[6]; Table 43, 35 gai/ha alone",70%
same,Visual Weed Control (%) - 20 DAA LEFCH Obs,[7],60%
"COc1cc(OC)nc(NC(=O)NS(=O)(=O)Nc2ccccc2C(=O)N(C)C)n1 [Orthosulfamuron, 2-[[[[[(4,6-dimethoxy-2-pyrimidinyl)amino]carbonyl]amino]sulfonyl]amino]-N,N-dimethylbenzamide]",Visual Weed Control (%) Obs,[1]; 7.5 gai/ha,0%
same,Visual Weed Control (%) Obs,[1]; 15 gai/ha,30%
same,pest or weed control at 7.5 g/ha,[3]; 7.5 gai/ha,0%
same,pest or weed control at 15 g/ha,[3]; 15 gai/ha,0%
same,Visual Weed Control (%) - 21 DAA ECHOR Obs,"[4]; Table 46, 15 gai/ha alone",10%
same,Visual Weed Control (%) Obs,[5]; 7.5 gai/ha,50%
same,Visual Weed Control (%) Obs,[5]; 15 gai/ha,75%
same,Visual Weed Control (%) Obs,[5]; 30 gai/ha,65%
same,pest or weed control at 7.5 g/ha,[8]; 7.5 gai/ha,0%
same,pest or weed control at 15 g/ha,[8]; 15 gai/ha,30%
same,Visual Weed Control (%) - 20 DAA SCPMA Obs,"[9]; Table 45, 60 gai/ha alone",85%
same,Visual Weed Control (%) - 20 DAA SCPMA Obs,"[9]; Table 46, 60 gai/ha alone",85%
COC(=O)c1sccc1S(=O)(=O)NC(=O)Nc1nc(C)nc(OC)n1 [Thifensulfuron-methyl],pest or weed control at 3.75 g/ha,[10],35%
